{
  "source": "patent US20260325464A1",
  "about": "“COMPOSITIONS FOR MODULATING THE EXPRESSION OF AQUAPORINS IN NEURODEGENERATIVE DISORDERS” (priority 2023, published 2026)",
  "format_in_all_cases": "in vivo, rat",
  "key": {"IL-1β": {"test_system": "IL-1β", "assay": "Inflammatory marker IL-1β (ELISA), AlCl3 Alzheimer's model", "settings": "for IL-1β: p.o. + AlCl3 (100 mg/kg, i.p.), n = 6", "text": "The inflammatory markers Fibrinogen, IL-1β were estimated using ELISA kit (Krishgen Biosystems, India)."}, "Parkinson's disease": {"test_system": "Parkinson's disease", "assay": "Catalepsy test in rats with reserpine-induced Parkinson's disease", "design": "catalepsy score at 30 min / catalepsy score at 60 min / catalepsy score at 120 min: unit not given here", "settings": "for catalepsy score at 30 min / catalepsy score at 60 min / catalepsy score at 120 min: p.o. + Reserpine (4 mg/kg, s.c.), Mean ± SEM, n = 6", "text": "The induction of Parkinson's disease and measurement of other parameters were done as per the reported protocol (Santos et al., Cognitive, motor and tyrosine hydroxylase temporal impairment in a model of parkinsonism induced by reserpine. Behav Brain Res. 2013; 253:68-77 and Shishehbore et al. A novel kinetic spectrophotometric method for the determination of dopamine in biological and pharmaceutical samples. J Chem. 2013; 2013:1-6). Induction of Parkinson's disease was done by administering Resperine, which inhibits the monoamine vesicular transporters, thus decreasing the levels of monoamine neurotransmitters in the brain. Following pretreatment for 14 days with Gingerenone A, the rat groups received subcutaneous injections of reserpine (4 mg/kg) for the final five days of the treatment regimen. Resperine (5 mg) was dissolved in 1 ml of 1% acetic acid and then diluted tenfold with distilled water to achieve a final concentration of 500 μg/ml. The normal control group received saline with 1% acetic acid […], administered from day 10 to day 14. Thirty minutes following the administration of reserpine on the 14th day, behavioural assessments were conducted using the Open Field test, Y Maze, and Catalepsy tests to evaluate changes. Rats administered with Carbidopa, a known drug for the management of Parkinson's disease was also used for comparison. Upon completion of the study, brains were harvested for biochemical analyses and histopathological studies. The experimental group is depicted in table 10.\nNeuroMol Med. 202022(2):314-330. Catalepsy in rats' manifests as an unresponsiveness to external stimuli accompanied by muscle rigidity. During the catalepsy test, rats were positioned on a wooden bar elevated 3-9 cm above the surface, with their forelimbs resting on it after administration of reserpine. The time taken for the rats to correct their posture was recorded as an indicator of catalepsy. Catalepsy ceased either when the rats climbed up the bar or when their forelimbs touched the floor. Observations were made at 30, 60, and 120 minutes after administration. All assessments were conducted in a quiet environment at a temperature of 23-25 degrees Celsius, with a maximum observation time of 5 minutes per trial."}, "Aquaporin-4 (AQP4)": {"test_system": "Aquaporin-4 (AQP4)", "assay": "AQP4 expression in brain homogenate (ELISA), AlCl3 Alzheimer's model", "settings": "5, 10 and 20 mg/kg, FIG. 1", "text": "Aquaporin-4 (AQP4) is a channel protein that plays a fundamental role in glymphatic system, a pathway for fluid exchange in the central nervous system, as well as a central figure in the pathophysiology of neurodegenerative diseases such as Alzheimer's disease (AD) and frontotemporal dementia. It plays an important role in maintaining cerebral fluid homeostasis by acting as a water channel protein. The AQP4 not only enables water permeability through the blood-brain barrier and also regulates water exchange between perivascular spaces and the rest of the glymphatic system (Szczygielski et al., Cerebral Microcirculation, Perivascular Unit, and Glymphatic System: Role of Aquaporin-4 as the Gatekeeper for Water Homeostasis, Front. Neurol. 12:767470, doi: 10.3389/fneur.2021.767470). Further, Astrocytes are known to maintain extracellular potassium concentrations in the brain by a process termed “potassium siphoning”. Changes in potassium channel function alters brain homeostasis leading to brain impairment. Water movement via the AQP4 water channel localized to astrocyte end-feet maintains osmotic balance and promotes effective potassium siphoning (Verkman A S, Aquaporins in Clinical Medicine, Annu. Rev. Med. 2012. 63:303-16). […] In the present study, the levels were determined using ELISA kit (Biogenuix Medsystems Pvt. Ltd.)."}, "Alzheimer's disease": {"test_system": "Alzheimer's disease", "assay": "Morris water maze (MWM) test in rats with AlCl3-induced Alzheimer's disease", "settings": "for Escape Latency Time: p.o. + AlCl3 (100 mg/kg, i.p.), MWM at 17th day, Mean ± SEM, n = 6", "method": "Morris water maze (MWM)—This test was performed as per protocol established by Ishola et al., Protective role of Spondiasmombin leaf and Cola acuminata seed extracts against scopolamine-induced cognitive dysfunction. Alexandria J Med. 2018; 54(1):27-39. MWM is a round water tank “diameter: 110 cm and height: 60 cm” consisting of a white surface and that is filled using opaque water (Temp. 26±2° C.) to a distance (depth) of 30 cm. The MWM tank circle is divided into 4 equal quadrants [North Quadrant 1, East Quadrant 2, West Quadrant 3, and South Quadrant 4]. Further, it consists of a 10 cm diameter platform in a constant position. Index of memory improvement is measured by the Escape Latency Time (ELT)—which is the time the animal takes to find the platform.\nThe MWM plays an important role in the testing of learning and memory in rodent models of Alzheimer's Disease. It is used to test hippocampal-dependent learning, including acquisition of spatial memory and long-term spatial memory (Bromley-Brits et al., Morris water maze test for learning and memory deficits in Alzheimer's disease model mice, J Vis Exp., 2011 Jul. 20:(53):2920). In this study, learning was impaired in the Alzheimer's group."}},
  "note": "Marks after values point to notes of the source that are not given here.",
  "data": [
    {"smiles": "COc1cc(CC/C=C/C(=O)CCc2ccc(O)c(OC)c2)ccc1O", "note": "[Gingerenone A]", "values": [
      {"measurement": "IL-1β", "setting": "IL-1β; 5 mg/kg", "value": 97.92, "unit": "pg/mL"},
      {"measurement": "IL-1β", "setting": "IL-1β; 10 mg/kg", "value": "84.90* pg/ml"},
      {"measurement": "IL-1β", "setting": "IL-1β; 20 mg/kg", "value": "80.65** pg/ml"},
      {"measurement": "IL-1β (in words)", "setting": "IL-1β; AlCl3 model, Table 9", "value": "significantly reduced"},
      {"measurement": "catalepsy score at 30 min", "setting": "Parkinson's disease; 5 mg/kg", "value": "2.46 ± 0.15"},
      {"measurement": "catalepsy score at 60 min", "setting": "Parkinson's disease; 5 mg/kg", "value": "2.52 ± 0.54"},
      {"measurement": "catalepsy score at 120 min", "setting": "Parkinson's disease; 5 mg/kg", "value": "2.43 ± 0.70"},
      {"measurement": "catalepsy score at 30 min", "setting": "Parkinson's disease; 10 mg/kg", "value": "1.76 ± 0.11"},
      {"measurement": "catalepsy score at 60 min", "setting": "Parkinson's disease; 10 mg/kg", "value": "1.72 ± 0.73"},
      {"measurement": "catalepsy score at 120 min", "setting": "Parkinson's disease; 10 mg/kg", "value": "1.71 ± 0.75"},
      {"measurement": "catalepsy score at 30 min", "setting": "Parkinson's disease; 20 mg/kg", "value": "1.58 ± 0.16"},
      {"measurement": "catalepsy score at 60 min", "setting": "Parkinson's disease; 20 mg/kg", "value": "1.55 ± 0.32"},
      {"measurement": "catalepsy score at 120 min", "setting": "Parkinson's disease; 20 mg/kg", "value": "1.50 ± 0.82"},
      {"measurement": "muscle rigidity in catalepsy test (in words)", "setting": "Parkinson's disease; reserpine model, Table 13", "value": "significantly improved muscle rigidity"},
      {"measurement": "AQP4 expression (in words)", "setting": "Aquaporin-4 (AQP4)", "value": "increased AQP4 expression"},
      {"measurement": "Escape Latency Time", "setting": "Alzheimer's disease; 5 mg/kg", "value": "34.47 ± 3.87", "unit": "s"},
      {"measurement": "Escape Latency Time", "setting": "Alzheimer's disease; 10 mg/kg", "value": "27.73 ± 2.18", "unit": "s"},
      {"measurement": "Escape Latency Time", "setting": "Alzheimer's disease; 20 mg/kg", "value": "27.82 ± 2.63", "unit": "s"},
      {"measurement": "learning and memory in MWM (in words)", "setting": "Alzheimer's disease; AlCl3 model, Table 4", "value": "significantly improved learning and memory"}
    ]}
  ]
}
